Experimental findings from patent US7807676B2, “Diketo-Piperazine and Piperidine derivatives as antiviral agents” (priority 2006, dated 2010) are described below.

Molecules are shown by their SMILES. Counter-ions that a name gives are not always drawn.

The assay concerns HIV-1 single-round infectious reporter virus. Briefly: Single-round infectious HIV-1 luciferase reporter virus infection of HeLa CD4 cells (antiviral EC50). Particulars: Human immunodeficiency virus 1, HeLa, read-out: EC50 Group from Table 3. It counts as cell-based. The protocol:
• Virus production—Human embryonic Kidney cell line, 293T, was propagated in Dulbecco's Modified Eagle Medium (Invitrogen, Carlsbad, Calif.) containing 10% fetal Bovine serum (FBS, Sigma, St. Louis, Mo.). • Virus infection—Human epithelial cell line, HeLa, expressing the HIV-1 receptor CD4 was propagated in Dulbecco's Modified Eagle Medium (Invitrogen, Carlsbad, Calif.) containing 10% fetal Bovine serum (FBS, Sigma, St. Louis, Mo.) and supplemented with 0.2 mg/mL Geneticin (Invitrogen, Carlsbad, Calif.). Virus-Single-round infectious reporter virus was produced by co-transfecting human embryonic Kidney 293 cells with an HIV-1 envelope DNA expression vector and a proviral cDNA containing an envelope deletion mutation and the luciferase reporter gene inserted in place of HIV-1 nef sequences (Chen et al, Ref. 41). Transfections were performed using lipofectAMINE PLUS reagent as described by the manufacturer (Invitrogen, Carlsbad, Calif.). Experiment • 1. HeLa CD4 cells were plated in 96 well plates at a cell density of 1×10^4 cells per well in 100 μl Dulbecco's Modified Eagle Medium containing 10% fetal Bovine serum and incubated overnight. • 2. Compound was added in a 2 μl dimethylsulfoxide solution, so that the final assay concentration would be ≦10 μM. • 3. 100 μl of single-round infectious reporter virus in Dulbecco's Modified Eagle Medium was then added to the plated cells and compound at an approximate multiplicity of infection (MOI) of 0.01, resulting in a final volume of 200 μl per well. • 4. Virally-infected cells were incubated at 37 degrees Celsius, in a CO2 incubator, and harvested 72 h after infection. • 5. Viral infection was monitored by measuring luciferase expression from viral DNA in the infected cells using a luciferase reporter gene assay kit, as described by the manufacturer (Roche Molecular Biochemicals, Indianapolis, Ind.). Infected cell supernatants were removed and 50 μl of lysis buffer was added per well. After 15 minutes, 50 μl of freshly-reconstituted luciferase assay reagent was added per well. Luciferase activity was then quantified by measuring luminescence using a Wallac microbeta scintillation counter. • 6. The percent inhibition for each compound was calculated by quantifying the level of luciferase expression in cells infected in the presence of each compound as a percentage of that observed for cells infected in the absence of compound and subtracting such a determined value from 100. • 7. An EC50 provides a method for comparing the antiviral potency of the compounds of this disclosure. The effective concentration for fifty percent inhibition (EC50) was calculated with the Microsoft Excel Xlfit curve fitting software. For each compound, curves were generated from percent inhibition calculated at 10 different concentrations by using a four parameter logistic model (model 205). Table 3 is the key for the data in Table 4. Results
Background: Reporter assays use an easily measured gene product as a stand-in for the process of interest.
`COc1cnc(-n2ccnn2)c2[nH]cc(C(=O)C(=O)N3CCN(c4nnnn4-c4ccccn4)CC3)c12` [A-59]: the EC50 (as a rule, the concentration that produces a half-maximal response) was less than 500 nM. Then `COc1cnc(-n2cnc(C)n2)c2[nH]cc(C(=O)C(=O)N3CCN(c4nnnn4-c4ccccc4)[C@@H](C)C3)c12` [A-60], with less than 500 nM; and `C[C@H]1CN(C(=O)C(=O)c2c[nH]c3c(-n4ccnn4)ncc(F)c23)CCN1c1nnnn1-c1ccccc1` [A-61], with less than 500 nM; and `CCOc1cccnc1N1CCN(C(=O)C(=O)c2c[nH]c3c(-n4ccnn4)ncc(F)c23)CC1` [A-62], with less than 500 nM.

In the case of `CCOc1cccnc1N1CCN(C(=O)C(=O)c2c[nH]c3c(-n4cnc(C)n4)ncc(OC)c23)CC1` [A-63], the concentration for a half-maximal effect (EC50) is less than 500 nM. `COc1cnc(-c2ncc(OC)c3c(C(=O)C(=O)N4CCN(c5nnnn5-c5ccccc5)CC4)c[nH]c23)c2[nH]ccc12` [A-64]: the concentration for a half-maximal effect (EC50) was less than 500 nM. With `COc1cnc(-n2cnc(C)n2)c2[nH]cc(C(=O)C(=O)N3CCN(c4ncccc4C(O)c4nccs4)CC3)c12` (stereo not drawn) [A-66] the figure was less than 500 nM.

`O=C(c1nccs1)c1cccnc1N1CCN(C(=O)C(=O)c2c[nH]c3cccc(F)c23)CC1` [A-67]: the EC50 is more than 500 nM.

Turning to `CCc1ncn(-c2ncc(OC)c3c(C(=O)C(=O)N4CCN(c5ncccc5C(=O)c5nccs5)CC4)c[nH]c23)n1` [A-68], the concentration for a half-maximal effect (EC50) is less than 500 nM.

Take `CCc1ncn(-c2ncc(OC)c3c(C(=O)C(=O)N4CCN(c5nnnn5-c5ccccn5)CC4)c[nH]c23)n1` [A-69]: the EC50 was less than 500 nM. With `CCc1ncn(-c2ncc(OC)c3c(C(=O)C(=O)N4CCN(c5nnnn5-c5ccccc5)CC4)c[nH]c23)n1` [A-70] the figure was less than 500 nM; with `O=C(C(=O)N1[C@@H]2CC[C@H]1CN(c1nnnn1-c1ccccc1)C2)c1c[nH]c2c(-n3ccnn3)ncc(F)c12` [A-71], less than 500 nM.

For the compound `O=C(C(=O)N1C[C@@H]2CC[C@H]1CN2c1nnnn1-c1ccccc1)c1c[nH]c2c(-n3ccnn3)ncc(F)c12` [A-72], the EC50 is less than 500 nM. Then `COc1cnc(-n2cnc(C)n2)c2[nH]cc(C(=O)C(=O)N3[C@H](C)CN(c4nnnn4-c4ccccc4)C[C@@H]3C)c12` [A-73], with less than 500 nM; and `O=C(C(=O)N1C[C@@H]2C[C@H]1CN2c1nnnn1-c1ccccc1)c1c[nH]c2c(-n3ccnn3)ncc(F)c12` [A-74], with more than 500 nM. Then `Cc1ccnn1-c1ncc(F)c2c(C(=O)C(=O)N3CCN(c4nnnn4-c4ccccc4)CC3)c[nH]c12` [B-3, 1-(4-fluoro-7-(5-methyl-1H-pyrazol-1-yl)-1H-pyrrolo[2,3-c]pyridin-3-yl)-2-(4-(1-phenyl-1H-tetrazol-5-yl)piperazin-1-yl)ethane-1,2-dione], with less than 500 nM; and `Nc1ccn(-c2ncc(F)c3c(C(=O)C(=O)N4CCN(c5nnnn5-c5ccccc5)CC4)c[nH]c23)n1` [B-4, 1-(7-(3-amino-1H-pyrazol-1-yl)-4-fluoro-1H-pyrrolo[2,3-c]pyridin-3-yl)-2-(4-(1-phenyl-1H-tetrazol-5-yl)piperazin-1-yl)ethane-1,2-dione], with less than 500 nM; and `Nc1ccnn1-c1ncc(F)c2c(C(=O)C(=O)N3CCN(c4nnnn4-c4ccccc4)CC3)c[nH]c12` [B-5, 1-(7-(5-amino-1H-pyrazol-1-yl)-4-fluoro-1H-pyrrolo[2,3-c]pyridin-3-yl)-2-(4-(1-phenyl-1H-tetrazol-5-yl)piperazin-1-yl)ethane-1,2-dione], with less than 500 nM.

`COc1cnc(-c2cc(C(=O)NCCO)[nH]n2)c2[nH]cc(C(=O)C(=O)N3CCN(c4nnnn4-c4ccccc4)CC3)c12` [B-8, N-(2-hydroxyethyl)-3-(4-methoxy-3-(2-oxo-2-(4-(1-phenyl-1H-tetrazol-5-yl)piperazin-1-yl)acetyl)-1H-pyrrolo[2,3-c]pyridin-7-yl)-1H-pyrazole-5-carboxamide.TFA]: the EC50 was less than 500 nM.

For `COc1cnc(-c2cc(C(=O)NCCOCCO)[nH]n2)c2[nH]cc(C(=O)C(=O)N3CCN(c4nnnn4-c4ccccc4)CC3)c12` [B-9, N-(2-(2-hydroxyethoxy)ethyl)-3-(4-methoxy-3-(2-oxo-2-(4-(1-phenyl-1H-tetrazol-5-yl)piperazin-1-yl)acetyl)-1H-pyrrolo[2,3-c]pyridin-7-yl)-1H-pyrazole-5-carboxamide.TFA], the EC50 was less than 500 nM.

As for `COc1cnc(-c2cc(C(=O)NCCCN3CCN(C)CC3)[nH]n2)c2[nH]cc(C(=O)C(=O)N3CCN(c4nnnn4-c4ccccc4)CC3)c12` [B-10, 3-(4-methoxy-3-(2-oxo-2-(4-(1-phenyl-1H-tetrazol-5-yl)piperazin-1-yl)acetyl)-1H-pyrrolo[2,3-c]pyridin-7-yl)-N-(3-(4-methylpiperazin-1-yl)propyl)-1H-pyrazole-5-carboxamide.TFA], the EC50 is less than 500 nM.

As for `COc1cnc(-c2cc(C(=O)NCCN3CCCC3)[nH]n2)c2[nH]cc(C(=O)C(=O)N3CCN(c4nnnn4-c4ccccc4)CC3)c12` [B-11, 3-(4-methoxy-3-(2-oxo-2-(4-(1-phenyl-1H-tetrazol-5-yl)piperazin-1-yl)acetyl)-1H-pyrrolo[2,3-c]pyridin-7-yl)-N-(2-(pyrrolidin-1-yl)ethyl)-1H-pyrazole-5-carboxamide.TFA], the EC50 is less than 500 nM. `COc1cnc(-c2cc(C(=O)NCCc3ccncc3)[nH]n2)c2[nH]cc(C(=O)C(=O)N3CCN(c4nnnn4-c4ccccc4)CC3)c12` [B-12, 3-(4-methoxy-3-(2-oxo-2-(4-(1-phenyl-1H-tetrazol-5-yl)piperazin-1-yl)acetyl)-1H-pyrrolo[2,3-c]pyridin-7-yl)-N-(2-(pyridin-4-yl)ethyl)-1H-pyrazole-5-carboxamide.TFA]: the EC50 was less than 500 nM. With `COc1cnc(-c2cc(C(=O)NCCN3CCOCC3)[nH]n2)c2[nH]cc(C(=O)C(=O)N3CCN(c4nnnn4-c4ccccc4)CC3)c12` [B-13, 3-(4-methoxy-3-(2-oxo-2-(4-(1-phenyl-1H-tetrazol-5-yl)piperazin-1-yl)acetyl)-1H-pyrrolo[2,3-c]pyridin-7-yl)-N-(2-morpholinoethyl)-1H-pyrazole-5-carboxamide.TFA], the EC50 was less than 500 nM. With `COc1cnc(-c2cc(C(=O)NCCN3CCNCC3)[nH]n2)c2[nH]cc(C(=O)C(=O)N3CCN(c4nnnn4-c4ccccc4)CC3)c12` [B-14, 3-(4-methoxy-3-(2-oxo-2-(4-(1-phenyl-1H-tetrazol-5-yl)piperazin-1-yl)acetyl)-1H-pyrrolo[2,3-c]pyridin-7-yl)-N-(2-(piperazin-1-yl)ethyl)-1H-pyrazole-5-carboxamide.TFA], the EC50 is less than 500 nM. Then `COc1cnc(-c2cc(C(=O)NCCCN(C)C)[nH]n2)c2[nH]cc(C(=O)C(=O)N3CCN(c4nnnn4-c4ccccc4)CC3)c12` [B-15, N-(3-(dimethylamino)propyl)-3-(4-methoxy-3-(2-oxo-2-(4-(1-phenyl-1H-tetrazol-5-yl)piperazin-1-yl)acetyl)-1H-pyrrolo[2,3-c]pyridin-7-yl)-1H-pyrazole-5-carboxamide.TFA], with less than 500 nM; and `COc1cnc(-c2cc(C(=O)NCCN(C)C)[nH]n2)c2[nH]cc(C(=O)C(=O)N3CCN(c4nnnn4-c4ccccc4)CC3)c12` [B-16, N-(2-(dimethylamino)ethyl)-3-(4-methoxy-3-(2-oxo-2-(4-(1-phenyl-1H-tetrazol-5-yl)piperazin-1-yl)acetyl)-1H-pyrrolo[2,3-c]pyridin-7-yl)-1H-pyrazole-5-carboxamide.TFA], with less than 500 nM; and `Nc1ncc(F)c2c(C(=O)C(=O)N3CCN(c4nnnn4-c4ccccc4)CC3)c[nH]c12` [B-17, 1-(7-amino-4-fluoro-1H-pyrrolo[2,3-c]pyridin-3-yl)-2-(4-(1-phenyl-1H-tetrazol-5-yl)piperazin-1-yl)ethane-1,2-dione], with less than 500 nM. Then `CC(=O)Nc1ncc(F)c2c(C(=O)C(=O)N3CCN(c4nnnn4-c4ccccc4)CC3)c[nH]c12` [B-18, N-(4-fluoro-3-(2-oxo-2-(4-(1-phenyl-1H-tetrazol-5-yl)piperazin-1-yl)acetyl)-1H-pyrrolo[2,3-c]pyridin-7-yl)acetamide], with more than 500 nM; and `CN(C)C(=O)Nc1ncc(F)c2c(C(=O)C(=O)N3CCN(c4nnnn4-c4ccccc4)CC3)c[nH]c12` [B-19, 3-(4-fluoro-3-(2-oxo-2-(4-(1-phenyl-1H-tetrazol-5-yl)piperazin-1-yl)acetyl)-1H-pyrrolo[2,3-c]pyridin-7-yl)-1,1-dimethylurea], with less than 500 nM.
